Reference: ChEMBL document CHEMBL1926625, “Identification of benzoxazin-3-one derivatives as novel, potent, and selective nonsteroidal mineralocorticoid receptor antagonists” (J Med Chem, 2011)

Assays:
Androgen receptor = target: T1, Androgen receptor (Homo sapiens, UniProt P10275); assay: Displacement of [3H]testosterone from AR
T1 sequence (P10275 whole entry): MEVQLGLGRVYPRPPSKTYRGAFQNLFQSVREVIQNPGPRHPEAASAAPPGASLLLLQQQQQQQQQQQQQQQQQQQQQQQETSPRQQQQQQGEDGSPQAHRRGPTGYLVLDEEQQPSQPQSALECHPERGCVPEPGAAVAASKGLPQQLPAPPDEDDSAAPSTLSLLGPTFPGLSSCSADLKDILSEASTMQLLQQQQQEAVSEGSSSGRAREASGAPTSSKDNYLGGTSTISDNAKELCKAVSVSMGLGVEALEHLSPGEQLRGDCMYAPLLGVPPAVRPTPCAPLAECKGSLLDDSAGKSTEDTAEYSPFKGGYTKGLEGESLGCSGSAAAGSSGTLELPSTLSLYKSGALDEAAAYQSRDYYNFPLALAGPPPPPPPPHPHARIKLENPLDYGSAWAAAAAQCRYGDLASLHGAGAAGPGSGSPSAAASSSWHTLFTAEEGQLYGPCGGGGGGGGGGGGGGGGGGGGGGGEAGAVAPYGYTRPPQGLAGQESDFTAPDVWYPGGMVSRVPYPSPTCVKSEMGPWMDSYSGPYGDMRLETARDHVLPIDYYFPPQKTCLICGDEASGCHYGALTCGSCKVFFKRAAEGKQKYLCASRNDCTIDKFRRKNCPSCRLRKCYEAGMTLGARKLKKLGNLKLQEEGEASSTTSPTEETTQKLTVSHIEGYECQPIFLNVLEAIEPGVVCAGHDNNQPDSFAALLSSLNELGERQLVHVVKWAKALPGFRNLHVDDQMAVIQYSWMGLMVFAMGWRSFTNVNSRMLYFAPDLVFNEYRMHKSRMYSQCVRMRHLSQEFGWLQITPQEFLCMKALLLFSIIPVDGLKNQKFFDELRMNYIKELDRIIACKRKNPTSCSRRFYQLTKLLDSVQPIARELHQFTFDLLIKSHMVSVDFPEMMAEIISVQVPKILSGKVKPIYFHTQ

Progesterone receptor = target: T2, Progesterone receptor (Homo sapiens, UniProt P06401); assay: Displacement of [3H]progesterone from PR
T2 sequence (P06401 whole entry): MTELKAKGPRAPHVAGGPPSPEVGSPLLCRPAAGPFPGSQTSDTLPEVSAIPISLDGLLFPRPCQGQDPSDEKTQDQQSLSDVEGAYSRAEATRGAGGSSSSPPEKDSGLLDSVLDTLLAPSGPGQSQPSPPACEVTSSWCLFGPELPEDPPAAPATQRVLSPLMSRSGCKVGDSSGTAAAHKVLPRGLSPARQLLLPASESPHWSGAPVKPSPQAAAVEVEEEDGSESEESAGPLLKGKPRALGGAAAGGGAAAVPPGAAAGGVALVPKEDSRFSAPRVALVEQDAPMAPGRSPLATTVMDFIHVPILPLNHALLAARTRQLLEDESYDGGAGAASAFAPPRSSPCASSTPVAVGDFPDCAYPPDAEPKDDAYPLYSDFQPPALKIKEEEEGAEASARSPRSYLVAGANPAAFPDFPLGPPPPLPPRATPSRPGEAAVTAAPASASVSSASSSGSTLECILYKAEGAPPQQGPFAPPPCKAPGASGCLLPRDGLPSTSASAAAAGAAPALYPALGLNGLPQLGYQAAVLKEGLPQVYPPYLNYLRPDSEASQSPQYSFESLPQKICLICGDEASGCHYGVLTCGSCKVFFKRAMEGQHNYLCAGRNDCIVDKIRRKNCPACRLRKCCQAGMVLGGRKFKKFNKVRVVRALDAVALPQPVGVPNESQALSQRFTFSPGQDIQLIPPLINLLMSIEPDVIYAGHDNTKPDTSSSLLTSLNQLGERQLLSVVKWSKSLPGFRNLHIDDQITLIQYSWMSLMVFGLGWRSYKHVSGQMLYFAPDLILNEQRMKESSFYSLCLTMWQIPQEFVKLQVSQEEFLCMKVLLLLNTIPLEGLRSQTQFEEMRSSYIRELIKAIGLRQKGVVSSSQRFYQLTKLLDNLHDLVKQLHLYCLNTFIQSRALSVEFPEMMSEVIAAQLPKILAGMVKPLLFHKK

[1] = Volume of distribution at steady state in Sprague-Dawley rat at 3 mg/kg, iv and 10 mg/kg, po; format: ADME, organism-based; details: in vivo, read-out: Vdss
[2] = AUC (0 to 24 hrs) in Sprague-Dawley rat at 10 mg/kg, po; format: ADME, organism-based; design: time < 24 hr, dose 10 mg/kg, route oral; details: plasma
[3] = Mean residence time in Sprague-Dawley rat at 10 mg/kg, po; format: ADME, organism-based; design: dose 10 mg/kg, route oral; details: in vivo
[4] = Bioavailability in Sprague-Dawley rat at 3 mg/kg, iv and 10 mg/kg, po; format: ADME, organism-based; details: in vivo
[5] = target: T3, Mineralocorticoid receptor (Homo sapiens, UniProt P08235)
T3 sequence (P08235 whole entry): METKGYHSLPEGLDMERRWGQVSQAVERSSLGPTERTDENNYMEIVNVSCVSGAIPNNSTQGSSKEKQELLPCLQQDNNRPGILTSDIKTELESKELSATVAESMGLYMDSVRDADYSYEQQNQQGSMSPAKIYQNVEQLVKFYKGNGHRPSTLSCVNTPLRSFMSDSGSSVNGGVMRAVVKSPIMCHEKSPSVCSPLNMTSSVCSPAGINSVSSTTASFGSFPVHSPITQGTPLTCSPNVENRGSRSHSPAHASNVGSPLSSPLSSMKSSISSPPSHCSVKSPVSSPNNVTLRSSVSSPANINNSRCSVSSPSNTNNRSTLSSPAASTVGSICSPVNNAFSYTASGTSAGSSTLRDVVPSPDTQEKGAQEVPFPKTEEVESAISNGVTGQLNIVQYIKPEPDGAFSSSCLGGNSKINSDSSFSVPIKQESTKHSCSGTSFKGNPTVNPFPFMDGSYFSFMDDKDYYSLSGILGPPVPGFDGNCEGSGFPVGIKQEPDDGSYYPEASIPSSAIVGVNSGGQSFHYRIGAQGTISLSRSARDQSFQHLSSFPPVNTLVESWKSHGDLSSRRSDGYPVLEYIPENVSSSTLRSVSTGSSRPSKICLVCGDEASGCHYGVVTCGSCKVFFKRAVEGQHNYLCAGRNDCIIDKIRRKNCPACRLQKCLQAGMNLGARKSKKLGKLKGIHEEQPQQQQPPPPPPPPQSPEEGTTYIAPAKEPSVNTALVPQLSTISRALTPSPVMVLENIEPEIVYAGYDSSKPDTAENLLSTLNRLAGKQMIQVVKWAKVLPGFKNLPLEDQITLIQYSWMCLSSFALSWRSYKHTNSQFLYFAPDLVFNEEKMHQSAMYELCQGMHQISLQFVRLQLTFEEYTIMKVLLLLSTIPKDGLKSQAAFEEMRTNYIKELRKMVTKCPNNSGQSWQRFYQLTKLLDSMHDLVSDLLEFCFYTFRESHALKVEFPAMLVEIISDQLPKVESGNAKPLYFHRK
Description: Antagonist activity at human MR transfected in human COS1 cells after 1 day by luciferase reporter gene assay

[6] = target: T3, Mineralocorticoid receptor; assay: biochemical
Description: Displacement of [3H]aldosterone from cytosolic human MR expressed in HEK293 cells after 16 hrs by scintillation counting

Cc1cc(F)ccc1-n1nc(C(F)(F)F)cc1-c1ccc2c(c1)NC(=O)CO2
IC50 (Androgen receptor): > 10 µM | IC50 (Progesterone receptor): 1.9 µM | Vd [1]: 4.63 L/kg | AUC(0-t) at 24 h [2]: 3830 ng·h/mL | MRT [3]: 4.39 h | bioavailability [4]: 50.7% | IC50 [5]: 0.043 µM | IC50 [6]: 0.041 µM
